Assays:
bone marrow cells = test: DAF-based hemoglobin colorimetry assay on cultured bone marrow cells from phenylhydrazine-induced anemic mice; assay type: cell-based, C57BL/6JNarl mice; conditions: about 0.1 to about 20 μg/ml, 4 days, with 50 mU/ml EPO; **P<0.01 versus control (0 μg/ml); FIG. 1
Method: C57BL/6JNarl mice, 8-10 weeks of age, were purchased from the National Laboratory Animal Center (NLAC, Taiwan). Acute hemolytic anemia was induced by a single intraperitoneal (i.p.) injection of phenylhydrazine hydrochloride (Sigma-Aldrich) at a dose of 100 mg/kg in a phosphate buffered saline (PBS). Six days after the injection, bone marrow cells were isolated from mice and cultured according to the procedure described in Worthington et al., (1985) and Rosenthal et al. (1987) with minor modifications. […]
In the next day, different concentrations of compound A (0, 0.1, 0.5, 2.5, 12.5 and 20 μg/ml) were added to the cells, respectively, and incubated for 4 days. The relative levels of hemoglobin were determined using DAF-based hemoglobin colorimetry assay according to Kaiho (1985) and Worthington (1985) with minor modifications. […] The absorbance at 610 nm was measured by Victor 2 1420 Multilable Counter (Wallac, PerkinElmer). Results were expressed as relative index±S.E. (n=6). Statistical significance was evaluated by Student's t test (**P<0.01 versus control group (0 μg/ml)).

erythropoietin (Epo) = test: Epo expression in kidney slices (RT-PCR); assay type: cell-based, mouse; conditions: 0.6-100 μg/ml, 16 hr, versus 0 μg/ml, FIG. 3
Method: C57BL/6JNarl mice, 8-10 weeks of age, were purchased from the National Laboratory Animal Center (NLAC, Taiwan). The kidney slices of mice were prepared as previously described with modifications (Parrish et al., 1995, Obatomi et al., 1998 and De Kanter et al., 1999). Briefly, mice were sacrificed by cervical dislocation and the kidneys were excised and immediately kept in gassed (95% O2 and 5% CO2) ice-cold sterile Krebs-HEPES buffer (pH 7.4) containing 20 mM HEPES (USB), 128 mM sodium chloride (Sigma-Aldrich), 2.5 mM potassium chloride (Sigma-Aldrich), 2.7 mM calcium chloride (Sigma-Aldrich), 1 mM magnesium chloride (Sigma-Aldrich) and 16 mM D-glucose (Sigma-Aldrich). […]
Kidney slices were preincubated in a 24-well plate (Falcon) containing 1.0 ml/well of gassed (95% O2, 5% CO2) fresh media (DMEM/F12 (Gibco/Invitrogen) containing 15 mM HEPES (USB), 20 mM sodium bicarbonate (Sigma-Aldrich)) and 5% (v/v) FBS (Gibco) for 90˜120 min at 37° C. in a 95% O2: 5% CO2 atmosphere chamber. […] The reverse-transcribed cDNA samples were analyzed by polymerase chain reaction (PCR) using ABI GeneAmp™ system 2700 (Applied Biosystems) with primers targeting toward mouse β-actin (SEQ ID NOs: 1 and 2) and erythropoietin (Epo) (SEQ ID NOs: 3 and 4) (Table 1). Results were compared with control group (0 μg/ml) and expressed as relative index.

SMILES: OC[C@H]1O[C@@H](Oc2c(O)cc(O)cc2/C=C/c2ccc(O)cc2)[C@H](O)[C@@H](O)[C@@H]1O [Compound A, 2,3,5,4′-tetrahydroxystilbene 2-O-β-D-glucopyranoside]
- hemoglobin formation (relative index) (bone marrow cells): significantly enhanced hemoglobin formation
- expression of Epo in kidney tissue (relative index) (erythropoietin (Epo)): increased the expression of Epo in kidney tissue
